Experimental findings from patent publication US12263198B1, “Compositions and methods of improving ruminant performance” (Ralco Nutrition, Inc., priority 2021, dated 2025) are described below.

Molecules are shown by their SMILES. Marks after values point to notes of the source that are not given here.

This assay relates to rumen fluid. Briefly: ANKOM artificial rumen system, dry matter digestibility of hay. Type of assay: cell-based, steers. The conditions noted are these: 24 hours. How it is done: This study was conducted to evaluate the feed additive composition in an ANKOM artificial rumen system to compare digestibility of a feed additive of a cobalt lactate/yeast blend, relative to a feed additive of only cobalt lactate and a feed additive of only yeast. In each run, two cannulated steers were used to collect rumen fluid from the two steers at the Ralco Beef Research Farm in Marshall, MN. The rumen fluid was mixed with a buffer solution along with a different feed additive composition in each of three jars and a fourth jar having a control with no treatment. Eight runs were performed at differing amounts of cobalt lactate, yeast, and blends of cobalt lactate and yeast, as shown in each of the tables below. The cobalt lactate used in Runs 1-8 was Microbial Catalyst® from Ralco. The yeast used in Runs 1-8 was Emprove MX from Emmert.
Dacron bags with hay (Barley straw, DM 94.2, CP 5.4, ADF 54.15, NDF 75.6, Neg/cwt 17.7 and Nem/cwt 42.5 respectively) samples were then added to each jar, the jar was purged with CO2 and incubated for 24 hours at 39.5 degrees C. At the end of the 24 hours, the bags were removed, washed with clear tap water and run through the ANKOM fiber analyzer. At that point, the bags were dried and re-weighed, and the weight entered into formulas to give a dry matter digestibility value.
In this study a similar analysis was performed as in Example 5. In this example, Formulation A (used in Runs 6-8) was compared to Product 1 (Diamond V XPC®) and Product 2 (Amaferm® from BioZyme). The protocol used in this example is the same as that provided above for Example 5.

As for `CC(O)C(=O)[O-].CC(O)C(=O)[O-].[Co+2]` (centres unmarked) [cobalt lactate], the DMD (Run 1, 3.0 g) is 54.37^b; the DMD (Run 2, 6.0 g) was 57.04^b; the DMD (Run 3, 3.0 g) was 61.87^b; the DMD (Run 4, 3.0 g) is listed as 61.83^c; the DMD (Run 5, 3.0 g) is given as 64.59^c; the DMD (Run 6, 3.0 g) is listed as 62.41^c. For the same compound, the DMD is listed as 62.17^b (Run 7, 3.0 g) and 66.71^c (Run 8, 3.0 g).
